According to the Kinase Knowledgebase extract (Sharma et al. 2016):
pIC50: −log10 of the molar value. Each block holds one molecule with its values, some of them ahead of it. Numbered stars: 1 amine (or outer) side, 2 acyl side, 3 side chain; on linkers, the order of the positions; unused ones are H or OH. Square brackets hold non-standard residues; d marks the D form. Peptide text beside a SMILES is read from it. ξ: configuration not given here. X1 = CC(=O)C(=O)CCc1ccc(CC(N[*:1])C(=O)[*:2])cc1; pY = N[C@@H](Cc1ccc(OP(=O)(O)O)cc1)C(=O)O; Ile(3ξ) = CCC(C)[C@H](N)C(=O)O

Assays:
EGFR (human) [1] = target: EGFR (human) (UniProt P00533)
EGFR (human), sequence (P00533 whole entry, looked up): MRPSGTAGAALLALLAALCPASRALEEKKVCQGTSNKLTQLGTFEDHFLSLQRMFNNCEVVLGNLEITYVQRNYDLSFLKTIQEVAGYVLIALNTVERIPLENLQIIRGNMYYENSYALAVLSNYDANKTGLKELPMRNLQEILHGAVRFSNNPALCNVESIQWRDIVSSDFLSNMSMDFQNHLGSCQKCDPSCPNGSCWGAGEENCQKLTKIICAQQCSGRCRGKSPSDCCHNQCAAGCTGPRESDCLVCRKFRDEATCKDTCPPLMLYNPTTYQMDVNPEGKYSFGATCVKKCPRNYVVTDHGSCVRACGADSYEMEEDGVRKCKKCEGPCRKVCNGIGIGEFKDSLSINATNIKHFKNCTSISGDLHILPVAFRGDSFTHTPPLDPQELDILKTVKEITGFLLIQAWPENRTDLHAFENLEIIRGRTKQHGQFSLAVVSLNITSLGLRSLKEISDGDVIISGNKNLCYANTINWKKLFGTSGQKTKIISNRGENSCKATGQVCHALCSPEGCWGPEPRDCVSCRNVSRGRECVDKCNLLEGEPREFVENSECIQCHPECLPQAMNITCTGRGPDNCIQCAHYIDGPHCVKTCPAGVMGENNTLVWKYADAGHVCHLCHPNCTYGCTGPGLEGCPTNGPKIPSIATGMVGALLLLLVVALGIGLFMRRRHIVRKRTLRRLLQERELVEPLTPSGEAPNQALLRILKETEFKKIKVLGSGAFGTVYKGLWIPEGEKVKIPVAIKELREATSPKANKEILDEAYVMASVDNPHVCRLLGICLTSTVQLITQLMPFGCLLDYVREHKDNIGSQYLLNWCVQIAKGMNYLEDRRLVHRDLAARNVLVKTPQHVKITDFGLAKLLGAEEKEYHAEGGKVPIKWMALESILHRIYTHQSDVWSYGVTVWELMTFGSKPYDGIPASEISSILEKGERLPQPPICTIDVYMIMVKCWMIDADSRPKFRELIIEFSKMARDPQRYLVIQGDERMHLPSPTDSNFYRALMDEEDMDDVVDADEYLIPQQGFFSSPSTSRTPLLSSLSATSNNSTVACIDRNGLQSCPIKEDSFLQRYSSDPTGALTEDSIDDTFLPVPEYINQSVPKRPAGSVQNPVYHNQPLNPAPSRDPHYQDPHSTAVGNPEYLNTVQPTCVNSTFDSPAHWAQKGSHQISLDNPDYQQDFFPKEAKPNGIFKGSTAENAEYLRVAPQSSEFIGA

MAPK14 (human) [2] = target: MAPK14 (human) (UniProt Q16539); experiment: Cell-Based Assay; details: a375
MAPK14 (human), sequence (Q16539 whole entry, looked up): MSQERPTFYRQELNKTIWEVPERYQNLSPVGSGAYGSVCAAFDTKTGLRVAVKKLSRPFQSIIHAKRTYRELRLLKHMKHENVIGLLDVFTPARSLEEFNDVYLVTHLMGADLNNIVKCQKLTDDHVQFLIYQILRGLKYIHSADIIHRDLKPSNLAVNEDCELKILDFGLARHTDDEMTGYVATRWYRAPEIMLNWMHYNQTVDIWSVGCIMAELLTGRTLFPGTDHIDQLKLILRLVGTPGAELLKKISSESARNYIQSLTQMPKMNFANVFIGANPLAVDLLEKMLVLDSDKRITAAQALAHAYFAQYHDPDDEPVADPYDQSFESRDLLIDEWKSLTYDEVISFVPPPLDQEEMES

EGFR (human) [3] = target: EGFR (human) (UniProt P00533); details: hn5
EGFR [4] = target: EGFR (UniProt P00533)
EGFR, sequence (P00533 whole entry, looked up): as the sequence (P00533 whole entry, looked up) above

PIK3CA (human) [5] = target: PIK3CA (human) (UniProt P42336); experiment: Inhibition of PIK3CA Kinase Activity
PIK3CA (human), sequence (P42336 whole entry, looked up): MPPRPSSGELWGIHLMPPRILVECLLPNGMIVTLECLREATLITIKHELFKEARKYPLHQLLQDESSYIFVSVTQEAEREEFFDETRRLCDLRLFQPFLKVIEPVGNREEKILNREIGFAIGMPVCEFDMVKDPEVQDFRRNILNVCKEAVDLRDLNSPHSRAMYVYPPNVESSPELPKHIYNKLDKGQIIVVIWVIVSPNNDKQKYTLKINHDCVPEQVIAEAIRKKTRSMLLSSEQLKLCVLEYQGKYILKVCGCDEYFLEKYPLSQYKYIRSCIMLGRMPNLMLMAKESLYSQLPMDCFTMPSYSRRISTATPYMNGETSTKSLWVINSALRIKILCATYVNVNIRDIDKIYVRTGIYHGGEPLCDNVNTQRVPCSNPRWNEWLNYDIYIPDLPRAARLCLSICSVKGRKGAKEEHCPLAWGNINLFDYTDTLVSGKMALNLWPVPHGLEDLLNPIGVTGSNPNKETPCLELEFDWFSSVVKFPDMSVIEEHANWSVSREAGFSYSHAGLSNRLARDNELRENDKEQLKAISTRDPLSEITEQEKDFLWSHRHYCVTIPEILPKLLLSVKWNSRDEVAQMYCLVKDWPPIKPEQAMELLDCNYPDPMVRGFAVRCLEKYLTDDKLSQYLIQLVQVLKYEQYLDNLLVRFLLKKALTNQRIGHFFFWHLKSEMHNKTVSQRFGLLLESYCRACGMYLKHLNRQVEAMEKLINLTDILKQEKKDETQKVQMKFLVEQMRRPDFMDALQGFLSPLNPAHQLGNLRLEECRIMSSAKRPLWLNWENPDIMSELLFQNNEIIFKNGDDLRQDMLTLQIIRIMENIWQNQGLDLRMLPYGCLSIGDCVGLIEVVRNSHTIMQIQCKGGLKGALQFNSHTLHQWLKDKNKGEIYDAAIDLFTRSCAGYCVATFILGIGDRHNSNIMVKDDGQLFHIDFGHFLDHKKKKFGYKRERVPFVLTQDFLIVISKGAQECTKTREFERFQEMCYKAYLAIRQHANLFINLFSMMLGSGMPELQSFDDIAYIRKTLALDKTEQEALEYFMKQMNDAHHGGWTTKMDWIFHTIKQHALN

PIK3CA (human) [6] = target: PIK3CA (human) (UniProt P42336); experiment: Assesment of Cell Proliferation of IGROV-1 Cells Using SRB Assay
PIK3CA (human) [7] = target: PIK3CA (human) (UniProt P42336); experiment: Assessment of PIK3CA Kinase Activity in NZOV9 Cells
EGFR (human) [8] = target: EGFR (human) (UniProt P00533); details: a431
EGFR [9] = target: EGFR (UniProt P00533); remark: listed apart in the source
EGFR (human) [10] = target: EGFR (human) (UniProt P00533); details: a431; remark: listed apart in the source
EGFR [11] = target: EGFR (UniProt P00533); remark: listed apart in the source
EGFR [12] = target: EGFR (UniProt P00533); remark: listed apart in the source
PIK3CA (human) [13] = target: PIK3CA (human) (UniProt P42336); experiment: Assessment of PIK3CA Kinase Activity in NZB5 Cells
EGFR (human) [14] = target: EGFR (human) (UniProt P00533); remark: listed apart in the source
EGFR [15] = target: EGFR (UniProt P00533); remark: listed apart in the source
EGFR (human) [16] = target: EGFR (human) (UniProt P00533); details: a431; remark: listed apart in the source
EGFR (human) [17] = target: EGFR (human) (UniProt P00533); details: a431; remark: listed apart in the source
PIK3CB (Human) = PIK3CB (Human) (UniProt P42338); experiment: Inhibition of PIK3CB Kinase (ATP Loss) Activity
EGFR (murine) [18] = target: EGFR (murine) (UniProt P00533); details: nih3t3/c7
EGFR (murine), sequence (P00533 whole entry, looked up): as the sequence (P00533 whole entry, looked up) above

[19] = target: PIK3CB;PIK3CG;PIK3CD;PIK3CA (human) (UniProt P48736); experiment: Assessment of PIK3CA/PIK3CB/PIK3CD/PIK3CG Kinase Activity
EGFR (human) [20] = target: EGFR (human) (UniProt P00533); details: a431; remark: listed apart in the source
MAPK14 (human) [21] = target: MAPK14 (human) (UniProt Q16539); experiment: Cellular Inhibition of MAPK14 Kinase in A549 Cells
MAPK14 (human) [22] = target: MAPK14 (human) (UniProt Q16539); experiment: p38-mediated TNF-alpha Inhibition (LPS-Stimulated PBMCs); details: pbmc
EGFR (human) [23] = target: EGFR (human) (UniProt P00533); remark: listed apart in the source
EGFR (murine) [24] = target: EGFR (murine) (UniProt P00533); details: nih3t3
EGFR (Balb/c mice) = EGFR (Balb/c mice) (UniProt P00533)
EGFR (human) [25] = target: EGFR (human) (UniProt P00533); details: a431; remark: listed apart in the source
MAPK14 = MAPK14 (UniProt Q16539); experiment: CSBP Inhibition
MAPK14, sequence (Q16539 whole entry, looked up): as the sequence (Q16539 whole entry, looked up) above

Compound: CN(C)CCOc1ccc(-c2nc(-c3ccc4c(c3)CC/C4=N\O)c(-c3ccncc3)[nH]2)cc1
pIC50 (MAPK14 (human) [2]): < 5.00

Compound: Oc1ccc(-c2nc3ccc(O)cc3s2)cc1
pIC50 (EGFR (human) [3]): 3.89

Compound: Cc1ccc([N+](=O)[O-])cc1S(=O)(=O)N(C)N=Cc1cnn2cccc(C)c12
pIC50 (PIK3CA (human) [7]): < 4.70

Compound: COc1ccc(OC)c(Cc2cc3c(Nc4cccc(Br)c4)ncnc3[nH]2)c1
pIC50 (EGFR (human) [8]): 5.35

Compound: CCC(C)[C@H](NC(=O)[C@H](CCC(=O)O)NC(=O)[C@H](CCC(=O)O)NC(=O)[C@H](Cc1ccc(OP(=O)(O)O)cc1)NC(C)=O)C(=O)N[C@@H](CCC(=O)O)C(=O)O (stereo partly specified) (Ac-[pY]EE[Ile(3ξ)]E-OH)
pIC50 (EGFR [9]): ≥ 6.30

Compound: O=C(Cc1ccc(F)cc1)Nc1cc(SC[C@@H](O)CO)cc([N+](=O)[O-])c1
pIC50 (EGFR (human) [10]): 4.54

Compound: CS(=O)(=O)Nc1cccc(-c2cc(OCc3ccccn3)nc(N3CCOCC3)n2)c1
pIC50 (PIK3CA (human) [5]): < 5.00
GI50 (PIK3CA (human) [6]): 16 µM

Compound: Nc1nc(Nc2ccc(Cl)cc2Br)c2cc(Cc3ccc(Cl)cc3Cl)[nH]c2n1
pIC50 (EGFR (human) [8]): 4.79

Compound: CC(=NN(C)S(=O)(=O)c1cc([N+](=O)[O-])ccc1C)c1cnn2ccc(Br)cc12
pIC50 (PIK3CA (human) [13]): < 4.70
pIC50 (PIK3CA (human) [7]): < 4.70

Compound: COc1cc2ncnc(N(C)c3ccccc3)c2cc1OC
pIC50 (EGFR [15]): 5.40

Compound: Cc1ccc([N+](=O)[O-])cc1S(=O)(=O)N(C)N=Cc1cnn2ccc(O)cc12
pIC50 (PIK3CA (human) [13]): < 4.70
pIC50 (PIK3CA (human) [7]): < 4.70

Compound: O=S(=O)(Nc1cc(-c2ccc3cnccc3c2)cnc1Cl)c1ccc(F)cc1
pIC50 (PIK3CB (Human)): 4.40

Compound: Oc1cc2cc(-c3cccnc3)cnc2cc1O
pIC50 (EGFR [11]): 5.90

Compound: CCOc1cc2ncc(C#N)c(Nc3ccc(OCc4ccccn4)c(Cl)c3)c2cc1NC(=O)/C=C/[C@@H]1CCCN1
pIC50 (EGFR (human) [20]): 8.52

Compound: COC(=O)c1ccccc1Sc1ccc2c(-c3c(Cl)cccc3Cl)c(=O)ncn2n1
pIC50 (MAPK14 (human) [22]): 6.43

Compound: COc1cc2ncnc(Nc3cccc(Cl)c3)c2cc1OC
pIC50 (EGFR (murine) [24]): > 7.82
LD50 (EGFR (Balb/c mice)): > 200 mg/kg
GI50 (EGFR (human) [25]): 0.302 µM

Compound: COC(=O)NC[C@H](C)Nc1nccc(-c2cn(C(C)C)nc2-c2cc(Cl)cc(NS(C)(=O)=O)c2F)n1
pIC50 (MAPK14 (human) [21]): 6.16

Compound: Oc1cccc(-c2c(F)cnc3[nH]c4cnc(-c5cccnc5)cc4c23)c1
pIC50 [19]: 6.00 to 7.00

Now from value to molecule, other results behind:

pIC50 (EGFR (human) [1]): 6.22
Compound: C=CC(=O)N1CCC[C@H](n2cnc3c(N)nc(Nc4ccc(N5CCOCC5)cc4)nc32)C1

pIC50 (EGFR [4]): 7.10
Compound: Ic1cccc(Nc2ncnc3ccccc23)c1

pIC50 (PIK3CA (human) [5]): 5.05
Compound: c1ccc(CCNc2nc(-c3ccc4cc[nH]c4c3)cc(N3CCOCC3)n2)nc1
GI50 (PIK3CA (human) [6]): 3.6 µM

pIC50 (EGFR (human) [3]): 3.52
Compound: Oc1ccc(-c2nc3c(O)cc(O)cc3s2)cc1

pIC50 (EGFR [11]): < 4.70
Compound: COc1ccc(/C=C/c2cnc3cc(OC)c(OC)cc3c2)cc1

inhibition (EGFR [12]): 0
Compound: O=C1NC(=O)C(c2cn(CCOCCO)c3ccccc23)=C1c1c[nH]c2ccccc12

pIC50 (EGFR (human) [14]): 7.62
Compound: Cc1ncnc(Nc2ccc(OCc3cccc(F)c3)c(Cl)c2)c1-c1ccc(CNC(C)C)cc1

pIC50 (EGFR (human) [16]): < 3.70
pIC50 (EGFR (human) [17]): < 3.70
Compound: Cc1ccccc1Cc1cc2c(Nc3ccc(Cl)cc3F)nc(N)nc2[nH]1

pIC50 (EGFR (murine) [18]): 4.30
Compound: CCOC(=O)CCc1c(C=C2C(=O)Nc3ccccc32)[nH]c(C(=O)OCC)c1CC(=O)OCC

pIC50 [19]: 7.00 to 9.00
Compound: COc1cnc2[nH]c3cnc(-c4cccnc4)cc3c2c1-c1ccc(NS(C)(=O)=O)cc1

pIC50 (EGFR (human) [10]): < 4.30
Compound: CCOc1ccc(-c2cc(C(F)(F)F)c(C#N)c(SCC(=O)NCC(=O)O)n2)cc1

pIC50 (MAPK14 (human) [21]): 5.66
Compound: COC(=O)N[C@@H](C)CNc1nccc(-c2cn(C(C)C)nc2-c2cc(Cl)cc(NS(C)(=O)=O)c2F)n1

pIC50 (EGFR [9]): ≥ 3.59
Compound: CCC(C)[C@H](NC(=O)[C@H](CCC(=O)O)NC(=O)[C@H](CCC(=O)O)NC(=O)C(Cc1ccc(CCC(=O)C(C)=O)cc1)NC(C)=O)C(=O)N[C@@H](CCC(=O)O)C(=O)O (stereo partly specified) (Ac-[X1]EE[Ile(3ξ)]E-OH)

pIC50 (MAPK14 (human) [22]): 6.68
Compound: Cc1ccccc1SC1=NN2CNC(=O)C(c3c(Cl)cccc3Cl)=C2C=C1

pIC50 (EGFR (human) [23]): ≥ 7.00
Compound: C#Cc1cc(Nc2ncnc3cc(OC)c(OCCCCCCC(=O)O)cc23)ccc1O

pIC50 (MAPK14): > 4.30
Compound: CSc1ccc(-c2ncn(C3CCN(CCC(=O)O)CC3)c2-c2ccnc(SC)n2)cc1
